“And” between values parts separate entries of the source, which are not always exact repeats. Equal entries are not always repeated.
Legend:
[1] = Headspace volatilization of secondary metabolites by GCMS; type: physicochemical; conditions: share of total peak area
Experimental: In this study, a liquid fumigant pesticide formulation was prepared as follows: • (1) Base formula: rosemary oil (5 ml) • (2) Enhancement formula: rosemary oil high quality (0.5 ml); clove oil (0.05 ml); peppermint oil (0.075 ml) • (3) Carrier solvent: isopropyl alcohol (6 ml); isopropyl myristate (0.06 ml). Blending: • 3. The required amounts of base formula ingredients were drawn from individual stocks of chemicals via a laboratory pipette and were transferred into a 40 ml GC glass vial (2.5 cm diameter by 10 cm length) with a silicon septa. The tall vial was used to minimize surface area of liquid that is exposed to the air during preparation. The chemicals were added quickly (less than 10 second to transfer each chemical) in order to minimize exposure to air. Following the same instruction, the enhancement formula was prepared and added to the same vial. • 4. The carrier solvent was then poured over the base formula and enhancement formula inside the vial. The vial was closed immediately after the solvent was added. The base formula, enhancement formula and carrier solvent were mixed using a lab shaker for 15 seconds.
A sub-sample of the fumigant pesticide composition (0.5 ml) was placed inside a 1 ml GC vial. Three commercial samples of rosemary oil was also placed inside three separate 1 mL GC vials. Headspace volatilization of secondary metabolites from these four samples were compared using a gas chromatograph mass spectrometer (GCMS). The GCMS was programmed to only collect samples from the headspace above the liquid mixture of the chemicals in the vials. […] The GCMS was a Varian 3900 system with a Saturn 2100T ion trap mass-selective detector (Varian Inc., Walnut Creek, Calif.). The inventors used a WCOT fused silica 30 m Å˜0.25 mm i.d. column with a CP-Sil 8 CB low bleed MS coating (Varian Inc.), a 1 μL injection volume and pure helium as the carrier at 1.0 ml min-1. The temperature program used was 80° C. for 0.5 min, an increase of 8.0 $ Cmin-1 for 8.0 min, followed by an increase of 50° C. min-1 for 3.2 min. Cinnamic alcohol (Sigma, St Louis, Mo., USA) was used as an internal standard.

[2] = Volatilization monitoring by ultra-fast gas chromatograph inside empty moving box; type: physicochemical; conditions: from fumigant pesticide composition prototype, empty medium size box, 60-150 min and 23 h after closing
Experimental: The volatilization of the prototype of the fumigant pesticide composition was monitored inside empty moving boxes. […] Ten mL of the fumigant pesticide composition prototype was placed inside a 40 mL GC vial.
Volatile monitoring was performed at two steps. Step one started 60 minutes after the box was closed and volatile samples were collected every 5-minutes for 90 minutes. The second step started 23 hours after the box was closed and samples were collected every 5-minutes for 50 minutes.

[3] = Commercial rosemary oil sample one
[4] = Commercial rosemary oil sample three
[5] = Commercial rosemary oil sample two
[6] = Pesticide fumigant formula of the present invention (0.5 ml in 1 ml GC vial)

| SMILES | % of secondary metabolite in headspace [1, 3] [%] | % of secondary metabolite in headspace [1, 4] | % of secondary metabolite in headspace [1, 5] [%] | % of secondary metabolite in headspace [1, 6] [%] | pattern of volatilization [2] |
| --- | --- | --- | --- | --- | --- |
| CC12CCC(CC1)C(C)(C)O2 [1,8-Cineole] | 57.05 | 36.95% | 21.53 | 46.78 | Unstable pattern with greater fluctuation at the end of trial |
| CC1=CCC2C(C1)C2(C)C (centres unmarked) [3-Carene] | 1.88 | – | – | – | – |
| CC1(C)C2CCC1(C)C(O)C2 (centres unmarked) [Borneol] | 4.06 | 1.68% | 3.60 | – | – |
| CC(=O)OC1CC2CCC1(C)C2(C)C (centres unmarked) [Bornyl Acetate] | 2.70 | 2.54% | – | – | – |
| C=C1C2CCC(C2)C1(C)C (centres unmarked) [Camphene] | 4.26 | 10.06% and 4.72% | 13.04 | 9.98 | Fluctuation pattern with increasing levels at the tail end |
| CC12CCC(CC1=O)C2(C)C (centres unmarked) [Camphor] | 11.89 | 18.60% | 25.50 | 23.30 | Fluctuation pattern with increasing levels at the tail end |
| C=C(C)[C@H]1CC=C(C)CC1 [D-Limonene] | – | – | 4.67 | – | Fluctuation pattern with increasing levels at the tail end |
| C=CCc1ccc(O)c(OC)c1 [Eugenol] | – | – | – | – | Unstable pattern with greater fluctuation at the end of trial |
| CC1(C)[C@@H]2CC[C@@]1(C)[C@H](O)C2 [Isoborneol] | 1.74 | – | 2.28 | – | – |
| CC(=O)OC(C)C [Isopropyl acetate] | – | – | 3.25 | – | – |
| CC1=CC[C@@H](C(C)(C)O)CC1 [a-Terpineol] | – | 2.48% | – | – | – |
| CC1=CCC2CC1C2(C)C (centres unmarked) [a-pinene] | 6.53 | 14.73% | 18.15 | 14.58 | Complete inhibition pattern |
| C=C1CCC2CC1C2(C)C (centres unmarked) [b-pinene] | 8.00 | 6.22% | 5.43 | 5.35 | Complete inhibition pattern |
| CC(C)=CCC/C(C)=C/CO [geraniol] | – | – | – | – | Steady compounds |
| C=CC(C)(O)CCC=C(C)C (centres unmarked) [linalool] | – | – | – | – | Steady compounds |
| Cc1ccc(C(C)C)cc1 [p-Cymene] | 1.89 | 2.01% | 2.56 | – | Fluctuation pattern with increasing levels at the tail end |

Source: patent US10058092B2, “Apparatus and method for controlled release of botanical fumigant pesticides” (priority 2012, dated 2018)
